According to patent US20210403567A1, “METHODS OF TREATING CERVICAL CANCER BY ADMINISTERING A PD-1 INHIBITOR” (priority 2020, published 2021):
“And” between values parts separate entries of the source, which are not always exact repeats. Equal values may be shown once.

Tests used:
cervical cancer = settings: durable responses; cited from earlier work
[1] = tested on: recurrent or metastatic cervical cancer; assay: Phase I expansion cohorts: cemiplimab 3 mg/kg IV Q2W alone or plus hfRT, tumor response (RECIST 1.1), PFS, OS; type: in vivo, human
Source text: The combination therapy cohort enrolled patients for whom palliative hfRT was planned to a lesion that was causing some signs or symptoms. The radiated lesion was not followed as a target lesion for response assessments.
Additional eligibility criteria included an Eastern Cooperative Oncology Group performance status score of 0 or 1, and adequate organ function. Patients were required to have at least one measurable lesion per Response Evaluation Criteria in Solid Tumors (RECIST) version 1.1. (Eisenhauer et al., Eur J Cancer 45 (2009) 228-47). In the combination therapy cohort, the measureable lesion(s) were in addition to the irradiated lesion.
Assessments: Tumor histology was assessed per local pathology reports of tumor samples obtained at any time prior to study enrollment. […] Extensive safety evaluations were performed during screening and on Day 1 of each subsequent treatment cycle throughout the study. Routine safety evaluations were performed at each cemiplimab dosing visit. Tumor response assessments were performed by investigators, per RECIST 1.1, at the end of each 8-week treatment cycle. In combination therapy cohorts, the lesions selected for hfRT were not included in RECIST 1.1 assessments.
Statistical analysis of clinical data: The safety summaries and analyses were performed on the safety analysis set. Data were summarized using descriptive statistics, along with two-sided 95% confidence interval (CI), by dose cohort. Continuous variables were summarized with mean, median, standard deviation, minimum, and maximum. Categorical variables were summarized with frequency and percentage. Kaplan-Meier analysis was performed for progression-free survival (PFS) and OS.

[2] = tested on: recurrent or metastatic cervical cancer that has progressed after platinum-containing chemotherapy; assay: Phase 3 trial, cemiplimab 350 mg IV Q3W versus investigator's choice (IC) chemotherapy: OS, PFS, ORR, DOR; settings: for OS Hazard Ratio (95% CI) / OS subgroup analysis, Hazard Ratio (95% CI) / PFS HR (95% CI): cemiplimab vs chemotherapy; for Median OS (95% CI) / Median PFS (95% CI) / Median DOR, months (95% CI): Kaplan-Meier; for PFS Hazard Ratio (95% CI): cemiplimab vs chemo; for reduction in the risk of disease progression: vs chemotherapy;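 for all read-outs here: randomized trial arms, OS counted from randomization until death with censoring at last contact, PFS until first RECIST 1.1 progression or death from any cause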
[3] = investigator assessment, n = 10 per cohort
[4] = AC, cemiplimab N=65, chemo N=66
[5] = Example 3 analysis, total population
[6] = Example 4 updated, AC, listed as cemiplimab
[7] = Example 4 updated, SCC, listed as cemiplimab
[8] = Example 4 updated, overall population
[9] = Example 4 updated, overall population, listed as cemiplimab
[10] = overall population, listed as cemiplimab
[11] = overall population, N=304 per arm

## cemiplimab
Cervical cancer
  responding patients in dose escalation: 2/3
[1]; 4/23 combined: dose escalation plus expansion cohorts
  objective response rate among cervical cancer patients enrolled in the phase I study: 17%
[1]; both expansion cohorts combined
  responding patients in expansion cohorts: 2/20
[1]; includes missing and unknown tumor response, n = 10 per cohort
  NE (not evaluable), n (%): 1 n (%)
[1]; investigator assessment, RECIST 1.1, n = 10 per cohort
  ORR, % (95% CI): 10.0%
[1]; [3]
  Partial response, n (%): 1 n (%)
  Progressive disease, n (%): 5 n (%)
  Stable disease, n (%): 3 n (%)
[1]; n = 10 per cohort
  Kaplan-Meier estimation of median OS: 10.3 months
  Kaplan-Meier estimation of median PFS: 1.9 months
  patients with best response of stable disease: 30%
[1]; objective response or stable disease, n = 10 per cohort
  Disease control rate, % (95% CI): 40.0%
[1]; one patient in each cohort of 10
  patients with partial response: 10%
[1]; one responder in each group
  DOR (duration of response): 11.2 months
  Observed time to response: 1.8 months
[1]; without progression for at least 16 weeks (105 days), n = 10 per cohort
  Durable disease control rate, % (95% CI): 20.0%
[2]; AC
  ORR: 12.3% and 12%
  Median OS (95% CI): 13.3 (9.6, 17.6) months
[2]; AC (non-SCC)
  OS Hazard Ratio (95% CI): 0.556 (0.363, 0.853) and 0.56 (0.36-0.85)
[2]; AC (non-SCC), listed as cemiplimab
  OS Hazard Ratio (95% CI): 0.56
[2]; AC, 6 months
  Estimated Event-Free Probability (PFS), % (95% CI): 30.1 (19.3, 41.6) %
  Estimated Survival Probability, % (95% CI): 69.6 (56.5, 79.4) %
[2]; AC, 12 months
  Estimated Event-Free Probability (PFS), % (95% CI): 10.6 (4.4, 20.0) %
  Estimated Survival Probability, % (95% CI): 57.4 (43.9, 68.7) %
[2]; AC, 18 months
  Estimated Event-Free Probability (PFS), % (95% CI): 8.5 (3.0, 17.6) %
  Estimated Survival Probability, % (95% CI): 34.2 (21.5, 47.3) %
[2]; AC, 24 months
  Estimated Event-Free Probability (PFS), % (95% CI): 8.5 (3.0, 17.6) %
  Estimated Survival Probability, % (95% CI): 19.5 (8.4, 34.1) %
[2]; AC, listed as cemiplimab
  Median OS (95% CI): 13.3 months
[2]; [4]
  Best Overall Tumor Response: Complete Response (CR): 3 (4.6%) n (%)
  Best Overall Tumor Response: Not Evaluable (NE): 6 (9.2%) n (%)
  Best Overall Tumor Response: Partial Response (PR): 5 (7.7%) n (%)
  Best Overall Tumor Response: Progressive Disease (PD): 19 (29.2%) n (%)
  OS: Number of censored patients: 24 (36.9%) n (%)
  Objective Response Rate (ORR: CR + PR): 8 (12.3%) n (%)
[2]; AC, post-hoc
  Reduced risk of death (vs. chemotherapy): 44%
[2]; AC, post-hoc, listed as cemiplimab
  Reduced risk of death (vs. chemotherapy): 44%
[2]; ECOG status per IWRS: 0
  OS subgroup analysis, Hazard Ratio (95% CI): 0.59 (0.43-0.82)
[2]; ECOG status per IWRS: 1
  OS subgroup analysis, Hazard Ratio (95% CI): 0.74 (0.57-0.96)
[2]; Example 3 analysis, Adeno, cemiplimab N=65, chemo N=66
  PFS: Number of events: 55 (84.6%) n (%)
[2]; Example 3 analysis, Adeno
  PFS Hazard Ratio (95% CI): 0.849 (0.574, 1.255)
[2]; Example 3 analysis, SCC
  Median PFS in month (95% CI): 2.8 (2.6, 4.0) month
  PFS: Number of censored patients: 53 (22.2%) n (%)
  PFS: Number of deaths: 25 (10.5%) n (%)
  PFS: Progressive Disease: 161 (67.4%) n (%)
  Reduced risk of progression (vs. chemotherapy): 31%
  PFS Hazard Ratio (95% CI): 0.686 (0.559, 0.843)
[2]; [5]
  Median PFS in month (95% CI): 2.8 (2.6, 3.9) month
  PFS: Number of censored patients: 63 (20.7%) n (%)
  PFS: Number of deaths: 31 (10.2%) n (%)
  PFS: Progressive Disease: 210 (69.1%) n (%)
  Reduced risk of progression (vs. chemotherapy): 28%
  PFS Hazard Ratio (95% CI): 0.719 (0.599, 0.862)
[2]; Example 3 analysis, total population, N=304 per arm
  PFS: Number of events: 241 (79.3%) n (%)
[2]; Example 4 updated, AC
  PFS: Number of censored patients: 9 (13.8%) n (%)
  PFS: Number of deaths: 7 (10.8%) n (%)
  PFS: Progressive Disease: 49 (75.4%) n (%)
  Median PFS (95% CI): 2.7 (2.3, 4.0) months
  PFS HR (95% CI): 0.912 (0.623, 1.335)
[2]; Example 4 updated, AC, post-hoc
  reduction in the risk of disease progression: 9%
[2]; [6]
  Median PFS (95% CI): 2.7 months
  PFS HR (95% CI): 0.91
[2]; Example 4 updated, AC, cemiplimab N=65, chemo N=66
  PFS: Number of events: 56 (86.2%) n (%)
[2]; Example 4 updated, SCC
  PFS: Number of censored patients: 42 (17.6%) n (%)
  PFS: Number of deaths: 34 (14.2%) n (%)
  PFS: Progressive Disease: 163 (68.2%) n (%)
  Median PFS (95% CI): 2.8 (2.6, 4.0) months
  PFS HR (95% CI): 0.705 (0.578, 0.861)
  reduction in the risk of disease progression: 29%
[2]; [7]
  Median PFS (95% CI): 2.8 months
  PFS HR (95% CI): 0.71
[2]; [8]
  PFS: Number of censored patients: 51(16.8%) n (%)
  PFS: Number of deaths: 41(13.5%) n (%)
  PFS: Progressive Disease: 212 (69.7%) n (%)
  Median PFS (95% CI): 2.8 (2.6, 3.9) months
  PFS HR (95% CI): 0.745 (0.625, 0.890)
  reduction in the risk of disease progression: 25%
[2]; [9]
  Median PFS (95% CI): 2.8 months
  PFS HR (95% CI): 0.75
[2]; Example 4 updated, overall population, N=304 per arm
  PFS: Number of events: 253 (83.2%) n (%)
[2]; Geographic region: Asia
  OS subgroup analysis, Hazard Ratio (95% CI): 0.65 (0.44-0.96)
[2]; Geographic region: North America
  OS subgroup analysis, Hazard Ratio (95% CI): 0.52 (0.27-1.00)
[2]; Geographic region: Rest of World
  OS subgroup analysis, Hazard Ratio (95% CI): 0.73 (0.57-0.94)
[2]; Prior bevacizumab use: No
  OS subgroup analysis, Hazard Ratio (95% CI): 0.76 (0.58-1.00)
[2]; Prior bevacizumab use: Yes
  OS subgroup analysis, Hazard Ratio (95% CI): 0.64 (0.48-0.86)
[2]; SCC
  Reduced risk of death (vs. chemotherapy): 27%
  Median OS (95% CI): 11.1 (9.2, 13.4) months
[2]; SCC, 6 months
  Estimated Event-Free Probability (PFS), % (95% CI): 34.5 (28.5, 40.5) %
  Estimated Survival Probability, % (95% CI): 69.6 (63.3, 75.0) %
[2]; SCC, 12 months
  Estimated Event-Free Probability (PFS), % (95% CI): 21.0 (15.8, 26.6) %
  Estimated Survival Probability, % (95% CI): 48.2 (41.3, 54.7) %
[2]; SCC, 18 months
  Estimated Event-Free Probability (PFS), % (95% CI): 14.5 (9.7, 20.1) %
  Estimated Survival Probability, % (95% CI): 33.4 (26.3, 40.6) %
[2]; SCC, 24 months
  Estimated Event-Free Probability (PFS), % (95% CI): 10.3 (5.9, 16.0) %
  Estimated Survival Probability, % (95% CI): 25.3 (17.8, 33.5) %
[2]; SCC, 30 months
  Estimated Event-Free Probability (PFS), % (95% CI): 7.7 (3.2, 14.8) %
  Estimated Survival Probability, % (95% CI): 25.3 (17.8, 33.5) %
[2]; SCC, listed as cemiplimab
  Median OS (95% CI): 11.1 months
  ORR: 17.6% and 18%
  Reduced risk of death (vs. chemotherapy): 27%
[2]; SCC, stratified proportional hazards model
  OS Hazard Ratio (95% CI): 0.727 (0.579, 0.914) and 0.73 (0.58-0.91)
[2]; SCC, stratified proportional hazards model, listed as cemiplimab
  OS Hazard Ratio (95% CI): 0.73
[2]; adenocarcinoma/adenosquamous (AC), cemiplimab N=65, chemo N=66
  OS: Number of deaths: 41 (63.1%) n (%)
[2]; overall population
  Median observed time to response, months (range): 2.7 (1.2-11.4) months
  Reduced risk of death (vs. chemotherapy): 31%
  Median DOR, months (95% CI): 16.4 (12.4, NE) months
  Median OS (95% CI): 12.0 (10.3, 13.5) months
  OS Hazard Ratio (95% CI): 0.685 (0.560, 0.838)
[2]; overall population, 6 months
  Estimated Event-Free Probability (PFS), % (95% CI): 33.5 (28.2, 38.9) %
  Estimated Survival Probability, % (95% CI): 69.6 (64.0, 74.5) %
[2]; overall population, 12 months
  Estimated Event-Free Probability (PFS), % (95% CI): 18.8 (14.4, 23.6) %
  Estimated Survival Probability, % (95% CI): 50.2 (44.1, 56.0) %
[2]; overall population, 18 months
  Estimated Event-Free Probability (PFS), % (95% CI): 13.0 (9.0, 17.8) %
  Estimated Survival Probability, % (95% CI): 33.4 (27.2, 39.7) %
[2]; overall population, 24 months
  Estimated Event-Free Probability (PFS), % (95% CI): 9.7 (6.0, 14.6) %
  Estimated Survival Probability, % (95% CI): 23.6 (17.1, 30.6) %
[2]; overall population, 30 months
  Estimated Event-Free Probability (PFS), % (95% CI): 7.8 (3.8, 13.6) %
  Estimated Survival Probability, % (95% CI): 23.6 (17.1, 30.6) %
[2]; [10]
  Median DOR, months (95% CI): 16 months
  Median OS (95% CI): 12 months and 12.0 months
  OS Hazard Ratio (95% CI): 0.69
  ORR: 16.4% and 16%
  Reduced risk of death (vs. chemotherapy): 31%
[2]; [11]
  Best Overall Tumor Response: Complete Response (CR): 10 (3.3) n (%)
  Best Overall Tumor Response: Not Evaluable (NE): 24 (7.9) n (%)
  Best Overall Tumor Response: Partial Response (PR): 40 (13.2) n (%)
  Best Overall Tumor Response: Progressive Disease (PD): 105 (34.5) n (%)
  OS: Number of censored patients: 120 (39.5%) n (%)
  OS: Number of deaths: 184 (60.5%) n (%)
  Objective Response Rate (ORR: CR + PR): 50 (16.4%) n (%)
[2]; prior lines: 1 line
  OS subgroup analysis, Hazard Ratio (95% CI): 0.74 (0.58-0.94)
[2]; prior lines: >1 line
  OS subgroup analysis, Hazard Ratio (95% CI): 0.72 (0.54-0.95)
